Reference: patent US20240374677A1, “VARIOUS COMPOUNDS FOR THE TREATMENT OF NEUROFIBROMATOSIS TYPE 1” (PUSAN NATIONAL UNIVERSITY INDUSTRY-UNIVERSITY COOPERATION …, priority 2023, published 2024)

Key:
NF1-GRD1 protein [1] = test: Nano-Glo HiBiT lytic assay of NF1-GRD1 protein in stable 293T cells; format: cell-based, human; conditions: FIG. 9; for treatment time at which the maximum effect was shown: 6 hours and 24 hours tested
Experimental: The cells were treated in the same manner as in Experimental Example 1 except that the treatment time was 6 hours and 24 hours, respectively, and the results of measuring the activity in each case were illustrated in FIG. 9.
The cells were treated in the same manner as in Experimental Example 1, except that the treatment time was 6 hours and 24 hours, respectively, and the concentration of PN-NF27 was 0 μM, 0.25 μM, 0.5 μM, 1.0 μM, and 5.0 μM, and the results of measuring the activity in each case were illustrated in FIG. 8.

NF1 protein [2] = test: Western blot of NF1 protein in 293T cells; format: cell-based, human; conditions: 5 μM, 6 hours, FIG. 10
Experimental: (§1) The effect of increasing NF1 protein in human renal epithelial-like cells (293T), human lung cancer cells (A549), and mouse embryonic fibroblasts (MEF) was analyzed using Western blot. Specifically, the cells incubated in a 10% FBS+DMEM culture medium for 48 hours were treated with 5 μM each of compounds for 6 hours, and then the quantified protein samples were subjected to electrophoresis. After electrophoresis, the proteins in the gel were transferred to a PVDF membrane and then Western blot was performed using NF1 antibody (Abcam, Cat#ab128054).

NF1 protein [3] = test: Western blot of NF1 protein in A549 cells; format: cell-based, human; conditions: 5 μM, 6 hours, FIG. 10
Experimental: as §1

NF1 protein [4] = test: Western blot of NF1 protein in mouse embryonic fibroblasts (MEF); format: cell-based; conditions: for NF1 protein increasing effect (Western blot): MEF cells, 6 hours, compared to other substances, FIG. 10; for NF1 protein quantification (Western blot) vs control group: MEF
Experimental: as §1
In addition, the effect of increasing NF1 protein in mouse embryonic fibroblasts (MEF) was analyzed using Western blot. A specific method was as described in Experimental Example 3.
The effect of increasing NF1 protein in mouse embryonic fibroblasts (MEF) was analyzed using Western blot. A specific method was as described in Experimental Example 3.

NF1 protein [5] = test: Western blot of NF1 protein in skin cells of NF1 patients; format: cell-based, human; conditions: 1 μM; normal cells and NF-09, NF-21, NF-11 cells, FIG. 13
Experimental: as §1
The effect of increasing NF1 protein in skin cells NF-09, NF-21, and NF-11 of NF1 patients was analyzed using Western blot. A specific method was as described in Experimental Example 3.

[6] = tested on: human lung cancer cells A549; test: MTT assay in A549 cells; format: cell-based; conditions: A549, various concentrations, 72 hours, FIG. 11
Experimental: (§2) Human lung cancer cells A549 and A549GR were treated with PN-NF27, PN-NF28, PN-NF30, PN-NF38, and PN-NF41, respectively, and then the MTT assay results were shown. Specifically, A549 and A549GR (anticancer resistant) cells incubated for 24 hours in a 96 well plate were treated with various concentrations of compounds for 72 hours, respectively, and then added with 10 μl of 3-(4,5-dimethylthiazole-2-yl)-2,5-diphenyltetrazolium bromide (MTT) and after 2 hours, the absorbance was measured at 550 nm.

[7] = tested on: A549GR (anticancer resistant) cells; test: MTT assay in A549GR cells; format: cell-based, human; conditions: various concentrations, 72 hours, FIG. 11
Experimental: as §2

[8] = tested on: skin cells NF-09, NF-21, and NF-11 of NF1 patients; test: MTT assay in skin cells of NF1 patients; format: cell-based, human
Experimental: The cell proliferation inhibitory effect of PN-NF27 was confirmed by an MTT method using skin cells NF-09, NF-21, and NF-11 of NF1 patients. […]
(§3) The cell proliferation inhibitory effect of PN-NF38 was confirmed using skin cells NF-09, NF-21, and NF-11 of NF1 patients. Specifically, skin fibroblasts (passage>8) incubated for 48 hours were treated with PN-NF38 at 0, 0.1, 1, 2.5, 5, and 10 μM for 24 hours, and then added with 3-(4,5-dimethylthiazol-2-yl)-2,5-diphenyltetrazolium bromide (MTT) and reacted for 1 hours, and then the absorbance was measured at 550 nm.
as §3, with “PN-NF41” for “PN-NF38”, “24” for “48”, “5” for “PN-NF38 at 0, 0.1, 1, 2.5, 5, and 10”, “μM of PN-NF41” for “μM”, “72” for “24”

NF1-GRD1 protein [9] = test: Nano-Glo HiBiT lytic assay of NF1-GRD1 protein in stable 293T cells; format: cell-based, human; conditions: for effect of increasing NF1 protein, times higher than control group: 293T cells stably expressing NF1-GRD1, treated 24 hours, luciferase activity vs DMSO-treated control, FIG. 8; for concentration showing the highest activity: 0-5.0 μM tested
[10] = tested on: HCT-8, HCT-15, HCT-116, PANC1, and PC3 cells; test: MTT assay in colon, pancreatic and prostate cancer cells; format: cell-based, human; conditions: 0, 0.1, 0.5, 1, 5, 10 μM, 72 hours, FIG. 17
Experimental: The cell proliferation inhibitory effect of PN-NF30 was confirmed using human colon cancer cells HCT-8, HCT-15, and HCT-116, human pancreatic cancer cells PANC1, and human prostate cancer cells PC3. Specifically, the HCT-8, HCT-15, HCT-116, PANC1, and PC3 cells incubated for 24 hours in a 96 well plate were treated with compounds at concentrations of 0, 0.1, 0.5, 1, 5, and 10 μM for 72 hours, respectively, and then added with 10 μl of 3-(4,5-dimethylthiazole-2-yl)-2,5-diphenyltetrazolium bromide (MTT) and after 1 hours, the absorbance was measured at 550 nm.

Compound	treatment time at which the maximum effect was shown (NF1-GRD1 protein [1])	maximum effect compared to the control group (NF1-GRD1 protein [1]; treatment time 6 hours)	NF1 protein increasing effect (Western blot) (NF1 protein [2])	NF1 protein increasing effect (Western blot) (NF1 protein [3])	NF1 protein increasing effect (Western blot) (NF1 protein [4]; 5 μM)	NF1 protein quantification (Western blot) vs control group (NF1 protein [4]; 1 μM, FIG. 14)	NF1 protein (Western blot) treated vs not treated (NF1 protein [5])	cell proliferation (MTT) [6]	cell proliferation (MTT) [7]	cell proliferation (MTT) treated vs not treated ([8]; 1 μM (result text), 72 hours, normal cells and NF-09, NF-21, NF-11 cells, FIG. 15)	effect of increasing NF1 protein, times higher than control group (NF1-GRD1 protein [9])	activity compared with the case not treated (0 μM) (NF1-GRD1 protein [9]; PN-NF27 at 0.25, 0.5, 1.0, 5.0 μM, 6 hours and 24 hours, FIG. 12)	concentration showing the highest activity (NF1-GRD1 protein [9]; incubated for 24 hours, FIG. 12)	concentration showing the highest activity (NF1-GRD1 protein [9]; treated for 6 hours, FIG. 12)	NF1 protein quantification (Western blot) vs control group (NF1 protein [4]; 5 μM, FIG. 16)	cell proliferation (MTT), concentration dependence [10]	maximum effect compared to the control group (NF1-GRD1 protein [1]; treatment time 24 hours)	NF1 protein quantification (Western blot) vs control group (NF1 protein [4]; 2 μM, FIG. 18)	cell proliferation (MTT), concentration dependence ([8]; 0, 0.1, 1, 2.5, 5, 10 μM, 24 hours, FIG. 19)	cell viability (MTT) ([8]; 10 μM, 24 hours, FIG. 19)
C/C=C(/C)C(=O)O[C@H]1C(C)=C[C@]23C(=O)[C@@H](C=C(COC(C)=O)[C@@H](O)[C@]12O)[C@H]1[C@@H](C[C@H]3C)C1(C)C [PN-NF27, 20-O-acetylingenol-3-angelate]	≤ 6 h	24 fold	excellent	superior to other substances	superior to other substances	tended to increase	tended to increase	effectively inhibited	effectively inhibited	tended to be inhibited	about 6 times	higher activity	0.5 µM	5.0 µM						
CN1CCc2cccc3c2[C@H]1Cc1ccc(O)c(O)c1-3.CN1CCc2cccc3c2[C@H]1Cc1ccc(O)c(O)c1-3.Cl.Cl.O [PN-NF30, R(−) Apomorphine hydrochloride hemihydrate, reference compound]				superior to other substances				effectively inhibited	effectively inhibited		about 2 times				tended to increase	tended to effectively inhibit cell proliferation as the concentration increased				
C=C(NC(=O)C(=C)NC(=O)c1csc(C2=N[C@@H]3c4csc(n4)[C@H]4NC(=O)c5csc(n5)[C@H]([C@](C)(O)[C@@H](C)O)NC(=O)[C@H]5CSC(=N5)/C(=C/C)NC(=O)[C@H]([C@@H](C)O)NC(=O)c5csc(n5)[C@]3(CC2)NC(=O)[C@H](C)NC(=O)C(=C)NC(=O)[C@H](C)NC(=O)[C@H]([C@@H](C)CC)N[C@@H]2C=Cc3c([C@H](C)O)cc(nc3[C@H]2O)C(=O)O[C@@H]4C)n1)C(N)=O [PN-NF38, Thiostrepton]	24 h			superior to other substances	superior to other substances			effectively inhibited	effectively inhibited		about 20 times						11 fold	tended to increase	tended to be effectively inhibited as the concentration of PN-NF38 cells increased	less than 0.3
